In paper PMC4640567, “Cinnamic Acid Bornyl Ester Derivatives from Valeriana wallichii Exhibit Antileishmanial In Vivo Activity in Leishmania major-Infected BALB/c Mice” (PLoS ONE, 2015):
Several values for one entry are separate records, joined by “and”; a condition that tells them apart may be missing. Equal values may be shown once.

Key:
[1] = AlamarBlue cytotoxicity, HEK 293 T cells; format: cell-based; conditions: human
Protocol: (§1) BMDM were generated in complete RPMI medium as described previously. On day six, the cytotoxicity against 2 × 10^5 cells/ml was tested at increasing concentrations of compounds 1 and 2 for 48 h. Human embryonic kidney HEK 293 T cells (ATCC, Wesel, Germany) were cultured in Dulbecco´s Modified Eagle Medium (DMEM) (Life Technologies, Darmstadt, Germany), with 10% FCS (PAA Laboratories, Germany). According to the standard operating procedures (SOP) within the Collaborative Research Center 630 (SFB 630) 2 × 10^4 HEK 293 T cells/ml were tested at increasing concentrations of compounds 1 and 2 for 48 h. Human liver carcinoma HepG2 cells (ATCC) were cultured in RPMI medium (Gibco) with 10% FCS. 1 × 10^5 cells/ml HepG2 were tested at increasing concentrations of 1 and 2 for 72 h according to the SOPs. The AlamarBlue assay was performed as described above for L. major parasites.

L. major promastigotes [2] = experiment: Annexin V / propidium iodide flow cytometry, cell death phenotype; format: cell-based, Leishmania major; conditions: 100 μM
Protocol: (§2) L. major parasites harvested from blood agar cultures were washed twice with Dulbecco’s phosphate-buffered saline (DPBS; Invitrogen, Darmstadt, Germany) and centrifuged at 3.000 × g for 10 min. The pellet was suspended in RPMI 1640 medium at a final concentration of 1 × 10^8 cells/ml. Cells were treated with 1% DMSO, 122.7 μM miltefosine (1-hexadecylphorylcholine; apoptosis inducer), or 100 μM of the tested compounds 1 and 2 in a final volume of 200 μl in 96 well plates. Samples were incubated at 27°C in 5% CO2 for several time points between 30 min and 24 h. Transmitted light microscopic, transmission electron microscopic (TEM), and flow cytometric techniques were used to find phenotypic patterns caused by the treatment with the tested compounds.
The loss of membrane integrity and translocation of phosphatidylserine (PS) to the outside of the cellular membrane can be determined by annexin V (AV) and propidium iodide (PI) staining. Double staining with AV-fluorescein isothiocyanate (FITC) and PI during flow cytometry analysis leads to discrimination between four populations: double negatives or alive cells (AV^-/PI^-), double positive or late necrotic/late apoptotic cells (AV^+/PI^+), PI-positive and AV-negative or early necrotic cells (AV^-/PI^+), and PI-negative and AV-positive or early apoptotic cells (AV^+/PI^-).
Parasites were harvested after incubation for 6 h, 10 h, and 24 h in the presence of compounds 1, 2 and miltefosine (Cayman Chemical Company, MI, USA), respectively, the latter serving as positive control for the induction of apoptotic cell death. DMSO was used as solvent control. Cell staining was performed using an AV-FITC Apoptosis detection kit (Sigma-Aldrich, Saint Louis, MO, USA). Cells were harvested, washed and suspended in 500 μL of binding buffer, 5 μL of AV-FITC and 10 μl of PI. The cells were incubated for 10 min in the dark at RT. Finally, stained samples were immediately analyzed by flow cytometry using MACSQuant analyzer or a flow cytometer (Becton Dickinson, San José, CA, USA).

[3] = tested on: L. donovani promastigotes; experiment: MTT assay, L. donovani (AG83) promastigotes; format: cell-based; conditions: Leishmania donovani, tested at 10, 50, 100 μM, read-out: Cytotoxicity (μM) L. donovani promastigotes (IC50)
Protocol: L. donovani promastigotes (strain: MHOM/IN/1983/AG83) were obtained from the Indian Institute of Chemical Biology, Kolkata, India. Promastigotes were cultured in Schneider’s insect medium (Sigma-Aldrich Co., St. Louis, USA) as described elsewhere.
Antiparasitic activities of compounds 1 and 2 dissolved in dimethyl sulfoxide (DMSO, E. Merck, India) against L. donovani (AG83) promastigotes were determined by a quantitative colorimetric assay using the 3-(4, 5- dimethylthiazol-2-yl)-2, 5-diphenyl tetrazolium bromide (MTT) (Sisco Research Laboratory, Mumbai, India) test as described elsewhere. The compounds were tested at concentrations of 10 μM, 50 μM, and 100 μM and IC50 values (concentration of compound, which inhibited at least 50% cell metabolic activity) for each compound were determined from respective dose–response curves using Origin 5.0 software (Microcal Software, Inc., Northampton, MA, USA).

L. major promastigotes [4] = experiment: Transmission electron microscopy, mitochondrial swelling; format: cell-based, Leishmania major; conditions: 100 μM, 2 h
Protocol: as §2
L. major promastigotes were incubated for 2 h in the presence of DMSO, 100 μM of compound 1 and compound 2, respectively. After the incubation period, the parasites were harvested, contrasted and embedded following the procedure described previously. Ultrathin sections were mounted on 300-mesh grids, stained with uranyl acetate and lead citrate, and analyzed with an EM 10 transmission electron microscope (Carl Zeiss AG, Oberkochen, Germany). To describe morphological changes in a statistical manner, six photographs with approximately 50 cells were taken and the percentage of cells with swollen mitochondria per treatment was determined.

L. donovani = experiment: Preliminary studies in L. donovani infected BALB/c mice; format: in vivo; conditions: need further evaluation
[5] = AlamarBlue cytotoxicity, BMDM; format: cell-based; conditions: bone marrow-derived macrophages (BMDM)
Protocol: as §1

L. major promastigotes [6] = experiment: MitoTracker Red CMXRos staining, flow cytometry; format: cell-based, Leishmania major; conditions: 100 μM
Protocol: L. major promastigotes were harvested from blood-agar cultures and washed twice with DPBS (900 × g for 5 min at RT). 2 × 10^6 promastigotes were dissolved in 180 μl RPMI complete medium and seeded in a 96 well plate. Parasites were incubated with 20 μL of compound 1 (final concentration: 100 μM), compound 2 (final concentration: 100 μM) and with 20 μL of DMSO, respectively, for 30 min, 45 min, 60 min, or 120 min at 27°C in a 5% CO2. After incubation 2 μl of MitoTracker Red CMXRos (final concentration: […]) (Life Technologies, Darmstadt, Germany) was added for 15 min at 27°C. Samples were directly acquired using a MACSQuant Analyzer (Miltenyi Biotech, Bergisch Gladbach, Germany) and MitoTracker-positive parasites were analyzed using MACS Quant Analyzing software.

[7] = AlamarBlue cytotoxicity, HepG2 cells; format: cell-based; conditions: human, read-out: Cytotoxicity (μM) HEP G2
Protocol: as §1

Compound | IC50 at 48 h [1] [µM] | LL: live cells (AV-/PI-) (L. major promastigotes [2]; 6 h) [%] | LR: early apoptotic cells (AV+/PI-) (L. major promastigotes [2]; 6 h) [%] | UL: early necrotic cells (AV-/PI+) (L. major promastigotes [2]; 6 h) [%] | UR: necrotic/late apoptotic cells (AV+/PI+) (L. major promastigotes [2]; 6 h) [%] | LL: live cells (AV-/PI-) (L. major promastigotes [2]; 10 h) [%] | LR: early apoptotic cells (AV+/PI-) (L. major promastigotes [2]; 10 h) [%] | UL: early necrotic cells (AV-/PI+) (L. major promastigotes [2]; 10 h) [%] | UR: necrotic/late apoptotic cells (AV+/PI+) (L. major promastigotes [2]; 10 h) [%] | Induced cell death phenotype (per definition) (L. major promastigotes [2]; 24 h) | LL: live cells (AV-/PI-) (L. major promastigotes [2]; 24 h) | LR: early apoptotic cells (AV+/PI-) (L. major promastigotes [2]; 24 h) | UL: early necrotic cells (AV-/PI+) (L. major promastigotes [2]; 24 h) | UR: necrotic/late apoptotic cells (AV+/PI+) (L. major promastigotes [2]; 24 h) | IC50 [3] [µM] | Counted parasites with mitochondrial swelling (TEM) (L. major promastigotes [4]) [%] | Antileishmanial in vivo activity (L. donovani) | IC50 at 48 h [5] [µM] | MitoTracker-positive cells, percentage of DMSO control (100%) (L. major promastigotes [6]; 60 min) [%] | MitoTracker-positive cells, percentage of DMSO control (100%) (L. major promastigotes [6]; 120 min) [%] | also measured
CC1(C)C2CCC1(C)C(OC(=O)C=Cc1ccccc1)C2 (single isomer, unassigned; (-)) [Compound 1, (-)-Bornyl cinnamate] | 83.1 | 71.3 | 3.7 | 12.3 | 12.7 | 69.3 | 4.2 | 12.9 | 13.6 | necrotic cell death phenotype | 33% and 33.2% | 4.1% | 30% and 29.8% | 33% and 32.9% | 15.6 | 39 | promising antileishmanial in vivo activities | 54.3 | 75 | 63 | IC50 at 72 h [7]: > 100 µM
CC1(C)C2CCC1(C)C(OC(=O)CCc1ccccc1)C2 (single isomer, unassigned; (-)) [Compound 2, (-)-bornyl 3-phenylpropionate] | > 100 | 54.4 | 8.8 | 10.7 | 26.1 | 47.2 | 9.3 | 16.8 | 26.7 | miltefosine-like cell death | 21% and 20.6% | 19% and 18.5% | 24% and 24.2% | 37% and 36.7% | > 100 | 36 | promising antileishmanial in vivo activities | > 100 | 75.2 | 60.2 | IC50 at 72 h [7]: > 100 µM
